Results on nine molecules are retold here after ChEMBL document CHEMBL1201862, “PubChem BioAssay data set” (2004).

The source made the active and inactive calls.

Experiment [1] addresses T1, Leucine aminopeptidase (Plasmodium falciparum 3D7, UniProt Q8IL11).
T1 sequence (Q8IL11 whole entry): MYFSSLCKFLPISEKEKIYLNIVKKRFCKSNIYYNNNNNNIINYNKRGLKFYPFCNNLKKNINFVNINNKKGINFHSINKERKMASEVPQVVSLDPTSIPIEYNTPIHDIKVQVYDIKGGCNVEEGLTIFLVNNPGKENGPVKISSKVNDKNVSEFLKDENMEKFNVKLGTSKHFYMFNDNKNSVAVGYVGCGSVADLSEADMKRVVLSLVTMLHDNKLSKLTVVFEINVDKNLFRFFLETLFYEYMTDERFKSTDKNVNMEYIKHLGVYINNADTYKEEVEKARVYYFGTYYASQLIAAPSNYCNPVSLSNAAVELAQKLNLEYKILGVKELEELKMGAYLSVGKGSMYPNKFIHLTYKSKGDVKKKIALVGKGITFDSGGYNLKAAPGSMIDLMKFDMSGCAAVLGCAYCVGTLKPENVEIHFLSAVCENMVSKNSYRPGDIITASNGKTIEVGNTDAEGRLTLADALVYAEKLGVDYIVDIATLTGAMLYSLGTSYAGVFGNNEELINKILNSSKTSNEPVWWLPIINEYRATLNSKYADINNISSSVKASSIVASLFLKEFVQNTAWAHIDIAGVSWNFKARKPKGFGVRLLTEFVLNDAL
The experiment is described as follows: P. falciparum M17LAP inhibitors, primary screen, biochemical, fluorogenic H-Leu-NHMec substrate, 1536-well (AID 1619). In kind it is functional.

The nature of experiment [2]: Luminescence Cell-Based Dose Response to Identify Activators of 5'UTR Stem-Loop Driven Prion Protein mRNA Translation in H4-C Neuroglioblastoma Cells. [Related pubchem assays: 1829 (Project Summary), 1814 (Primary HTS)]. In kind it is functional.
The nature of experiment [3]: Luminescence Cell-Based Dose Response HTS to Identify Activators of Luciferase Translation or Activity in H4 […] Cells. [Related pubchem assays: 1829 (Project Summary), 1814 (Primary HTS)]. In kind it is functional.
The nature of experiment [4]: Luminescence Cell-Based Dose Response to Identify Activators of Luciferase Translation or Activity in H4-C Neuroglioblastoma Cells. [Related pubchem assays: 1829 (Project Summary), 1814 (Primary HTS)]. The format is functional.
Experiment [5] can be described thus: Luminescence Cell-Based Dose Confirmation to Identify Activators of 5'UTR Stem-Loop Driven Alpha-Synuclein mRNA Translation in H4 Neuroglioblastoma Cells. [Related pubchem assays: 1829 (Project Summary), 1814 (Primary HTS)]. In kind it is functional.
In experiment [6] the test system is H4. Put plainly: Luminescence Cell-Based Dose Response HTS to Identify Activators of 5'UTR Stem-Loop Driven Prion Protein mRNA Translation in H4 Neuroglioblastoma Cells. [Related pubchem assays: 1829 (Project Summary), 1814 (Primary HTS)]. In kind it is functional. The conditions noted are these: Homo sapiens.
Experiment [7] concerns the target Peroxisome proliferator-activated receptor gamma/Nuclear receptor coactivator 2 (Homo sapiens, UniProt P37231). In kind it is functional.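 Also: agonist potency for raising coactivator recruitment to the receptor.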
Experiment [8] has as its target Peroxisome proliferator-activated receptor gamma/Nuclear receptor coactivator 1 (Homo sapiens, UniProt P37231). In kind it is functional.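 Also: agonist potency as compounds enhance coactivator SRC-1 recruitment to PPARgamma.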
For experiment [9], the target named is Peroxisome proliferator-activated receptor gamma/Nuclear receptor coactivator 3 (Homo sapiens, UniProt P37231). The format is functional.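 Also: agonist potency for raising coactivator recruitment to the receptor.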
For experiment [10], the target named is T2, Replicative DNA helicase DnaB (Mycobacterium tuberculosis, UniProt P9WMR3).
T2 sequence (P9WMR3 whole entry): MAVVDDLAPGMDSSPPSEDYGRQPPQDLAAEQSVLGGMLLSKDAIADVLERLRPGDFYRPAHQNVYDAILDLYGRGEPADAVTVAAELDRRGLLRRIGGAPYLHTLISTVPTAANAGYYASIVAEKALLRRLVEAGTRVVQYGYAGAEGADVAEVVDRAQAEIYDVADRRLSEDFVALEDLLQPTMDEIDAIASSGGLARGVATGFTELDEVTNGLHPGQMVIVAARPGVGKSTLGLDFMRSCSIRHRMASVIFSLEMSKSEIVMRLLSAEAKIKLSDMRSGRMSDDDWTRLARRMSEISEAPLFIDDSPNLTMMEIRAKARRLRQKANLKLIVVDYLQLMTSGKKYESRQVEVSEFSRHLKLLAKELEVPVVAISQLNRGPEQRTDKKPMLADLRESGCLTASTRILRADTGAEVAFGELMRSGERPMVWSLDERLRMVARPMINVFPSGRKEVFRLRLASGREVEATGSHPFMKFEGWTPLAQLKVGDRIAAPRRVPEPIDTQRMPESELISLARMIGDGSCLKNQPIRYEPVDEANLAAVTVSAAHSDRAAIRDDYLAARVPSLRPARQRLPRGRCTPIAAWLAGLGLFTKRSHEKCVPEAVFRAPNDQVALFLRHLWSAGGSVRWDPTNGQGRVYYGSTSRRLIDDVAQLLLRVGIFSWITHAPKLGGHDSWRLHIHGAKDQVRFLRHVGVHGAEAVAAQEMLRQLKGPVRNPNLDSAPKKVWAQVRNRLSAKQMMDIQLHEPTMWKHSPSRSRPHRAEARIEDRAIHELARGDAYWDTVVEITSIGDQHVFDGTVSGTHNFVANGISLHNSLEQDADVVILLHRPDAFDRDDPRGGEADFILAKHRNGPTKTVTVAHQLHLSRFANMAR
Put plainly: DnaB intein splicing inhibitors, dose response, biochemical, cell-free fluorescence (AID 449749). The format is functional.

For experiment [11], the target named is T3, Protein RecA (Mycobacterium tuberculosis, UniProt P9WHJ3).
T3 sequence (P9WHJ3 whole entry): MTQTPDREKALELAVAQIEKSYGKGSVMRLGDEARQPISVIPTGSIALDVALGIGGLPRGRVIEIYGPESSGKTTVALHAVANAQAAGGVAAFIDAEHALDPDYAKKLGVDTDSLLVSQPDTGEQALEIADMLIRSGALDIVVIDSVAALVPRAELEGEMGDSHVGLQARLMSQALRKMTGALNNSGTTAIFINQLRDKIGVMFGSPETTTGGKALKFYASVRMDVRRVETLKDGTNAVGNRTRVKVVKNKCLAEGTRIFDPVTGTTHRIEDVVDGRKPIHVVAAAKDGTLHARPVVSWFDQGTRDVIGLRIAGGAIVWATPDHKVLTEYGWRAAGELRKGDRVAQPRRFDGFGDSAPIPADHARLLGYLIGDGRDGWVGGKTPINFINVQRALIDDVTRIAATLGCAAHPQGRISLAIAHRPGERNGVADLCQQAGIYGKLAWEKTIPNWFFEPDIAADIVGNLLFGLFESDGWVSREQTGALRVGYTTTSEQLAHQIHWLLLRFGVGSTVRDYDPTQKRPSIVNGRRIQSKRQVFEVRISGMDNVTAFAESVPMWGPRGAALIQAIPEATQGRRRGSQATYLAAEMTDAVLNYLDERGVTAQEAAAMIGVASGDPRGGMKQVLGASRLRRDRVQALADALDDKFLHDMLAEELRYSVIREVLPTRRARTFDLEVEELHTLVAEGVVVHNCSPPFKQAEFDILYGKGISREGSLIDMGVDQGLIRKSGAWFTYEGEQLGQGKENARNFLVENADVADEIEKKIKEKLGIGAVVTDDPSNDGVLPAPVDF
The experiment is described as follows: Fluorescence Cell-Free Homogeneous Dose Retest to Identify Inhibitors of RecA-Intein Splicing Activity. [Related pubchem assays (depositor defined):AID2097, AID2223, AID489010, AID492950]. The format is functional.

Experiment [12] deals with T4, Aminopeptidase N (Plasmodium falciparum FcB1/Columbia, UniProt O96935).
T4 sequence (O96935 whole entry): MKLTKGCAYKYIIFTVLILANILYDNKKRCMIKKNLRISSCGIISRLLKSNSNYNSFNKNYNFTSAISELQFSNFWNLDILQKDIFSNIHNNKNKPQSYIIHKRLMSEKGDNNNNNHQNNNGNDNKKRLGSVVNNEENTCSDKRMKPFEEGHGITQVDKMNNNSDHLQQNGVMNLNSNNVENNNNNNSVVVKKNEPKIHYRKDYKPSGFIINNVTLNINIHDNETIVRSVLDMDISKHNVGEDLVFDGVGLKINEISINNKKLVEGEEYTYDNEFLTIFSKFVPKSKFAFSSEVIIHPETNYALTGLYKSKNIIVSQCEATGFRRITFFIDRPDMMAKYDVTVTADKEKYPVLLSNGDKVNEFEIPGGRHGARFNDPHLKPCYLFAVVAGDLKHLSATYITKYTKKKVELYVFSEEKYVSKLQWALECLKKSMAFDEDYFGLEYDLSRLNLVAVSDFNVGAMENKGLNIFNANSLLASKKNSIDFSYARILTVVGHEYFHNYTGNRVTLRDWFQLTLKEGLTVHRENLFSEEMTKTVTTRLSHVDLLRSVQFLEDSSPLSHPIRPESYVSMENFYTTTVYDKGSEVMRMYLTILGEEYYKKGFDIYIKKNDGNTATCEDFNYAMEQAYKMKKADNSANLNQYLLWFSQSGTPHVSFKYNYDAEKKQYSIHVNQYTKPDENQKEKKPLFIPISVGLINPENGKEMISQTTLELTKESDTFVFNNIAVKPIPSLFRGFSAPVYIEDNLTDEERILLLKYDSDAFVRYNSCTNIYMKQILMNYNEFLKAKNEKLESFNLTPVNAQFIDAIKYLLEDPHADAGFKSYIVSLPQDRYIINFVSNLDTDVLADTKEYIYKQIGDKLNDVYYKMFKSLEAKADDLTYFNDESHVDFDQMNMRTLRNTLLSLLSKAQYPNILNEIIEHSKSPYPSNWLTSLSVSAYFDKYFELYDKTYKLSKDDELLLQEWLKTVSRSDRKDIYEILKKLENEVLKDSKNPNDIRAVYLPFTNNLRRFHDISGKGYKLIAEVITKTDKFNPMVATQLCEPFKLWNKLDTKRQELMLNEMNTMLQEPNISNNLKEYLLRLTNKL
The experiment is described as follows: P. falciparum M1AAP inhibitors, biochemical, fluorogenic H-Leu-NHMec substrate, 1536-well (AID 1445). On the set-up: species or system Plasmodium falciparum 3D7, 3D7.

Experiment [13] concerns the target Induced myeloid leukemia cell differentiation protein Mcl-1 (Homo sapiens, UniProt Q07820). The format is functional.
The target in experiment [14] is T5, High affinity choline transporter 1 (Homo sapiens, UniProt Q9GZV3).
T5 sequence (Q9GZV3 whole entry): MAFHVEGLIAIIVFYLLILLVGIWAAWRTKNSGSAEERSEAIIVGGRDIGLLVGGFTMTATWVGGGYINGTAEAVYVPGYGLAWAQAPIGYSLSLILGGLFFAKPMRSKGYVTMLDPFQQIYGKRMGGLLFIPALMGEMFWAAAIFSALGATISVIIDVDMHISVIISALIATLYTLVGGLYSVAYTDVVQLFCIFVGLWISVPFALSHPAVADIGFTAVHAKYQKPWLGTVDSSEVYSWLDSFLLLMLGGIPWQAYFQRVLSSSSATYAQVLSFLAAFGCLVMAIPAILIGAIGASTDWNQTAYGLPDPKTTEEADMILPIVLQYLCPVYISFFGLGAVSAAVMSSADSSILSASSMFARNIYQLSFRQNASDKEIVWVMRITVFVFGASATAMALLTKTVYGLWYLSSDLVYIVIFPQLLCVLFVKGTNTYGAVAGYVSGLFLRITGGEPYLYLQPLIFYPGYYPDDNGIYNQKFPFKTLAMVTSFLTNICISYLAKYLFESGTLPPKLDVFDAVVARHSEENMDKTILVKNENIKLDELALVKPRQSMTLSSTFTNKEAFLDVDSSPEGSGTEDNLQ
Put plainly: CHT inhibitors, dose response, cell-based, 5-point CRC, membrane potential dye (AID 504840). In kind it is functional.

Experiment [15] has as its target Genome polyprotein (dengue virus type 2, UniProt P29990). Put plainly: Dengue-2 NS5 methyltransferase inhibitors, primary screen, biochemical, confirmation dose response (AID 588689). The format is functional.
A short description of experiment [16]: Luminescence Cell-Based Dose Confirmation HTS to Identify Activators of 5'UTR Stem-Loop Driven Alpha-Synuclein mRNA Translation in H4 Neuroglioblastoma Cells. [Related pubchem assays: 1829 (Project Summary), 1814 (Primary HTS)]. In kind it is functional.

Chain of Genome polyprotein (P29990 2492-3391 limits assumed): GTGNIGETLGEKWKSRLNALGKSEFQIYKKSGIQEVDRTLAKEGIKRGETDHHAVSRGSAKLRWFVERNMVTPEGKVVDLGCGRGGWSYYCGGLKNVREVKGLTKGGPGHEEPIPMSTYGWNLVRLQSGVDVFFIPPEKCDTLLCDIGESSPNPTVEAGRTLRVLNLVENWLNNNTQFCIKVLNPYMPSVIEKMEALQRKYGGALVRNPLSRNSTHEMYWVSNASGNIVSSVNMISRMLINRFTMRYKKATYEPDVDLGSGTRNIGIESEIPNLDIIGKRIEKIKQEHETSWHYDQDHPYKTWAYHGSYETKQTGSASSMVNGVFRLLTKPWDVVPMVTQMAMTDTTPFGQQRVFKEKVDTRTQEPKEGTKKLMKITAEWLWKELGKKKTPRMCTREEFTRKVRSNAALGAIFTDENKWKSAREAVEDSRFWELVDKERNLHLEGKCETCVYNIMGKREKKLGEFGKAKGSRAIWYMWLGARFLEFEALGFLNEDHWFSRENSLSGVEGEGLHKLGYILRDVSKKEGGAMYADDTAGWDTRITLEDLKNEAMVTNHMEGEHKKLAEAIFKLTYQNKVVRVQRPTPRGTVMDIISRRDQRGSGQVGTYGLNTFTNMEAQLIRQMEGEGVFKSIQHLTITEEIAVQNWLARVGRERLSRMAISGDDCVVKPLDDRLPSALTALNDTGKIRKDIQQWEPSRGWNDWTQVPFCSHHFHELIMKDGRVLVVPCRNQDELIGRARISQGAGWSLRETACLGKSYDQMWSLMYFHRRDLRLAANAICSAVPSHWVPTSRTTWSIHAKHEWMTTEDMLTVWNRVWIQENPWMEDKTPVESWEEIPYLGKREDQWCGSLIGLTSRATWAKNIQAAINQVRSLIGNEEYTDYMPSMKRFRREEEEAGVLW
Chain of Peroxisome proliferator-activated receptor gamma/Nuclear receptor coactivator 3 (P37231 whole entry): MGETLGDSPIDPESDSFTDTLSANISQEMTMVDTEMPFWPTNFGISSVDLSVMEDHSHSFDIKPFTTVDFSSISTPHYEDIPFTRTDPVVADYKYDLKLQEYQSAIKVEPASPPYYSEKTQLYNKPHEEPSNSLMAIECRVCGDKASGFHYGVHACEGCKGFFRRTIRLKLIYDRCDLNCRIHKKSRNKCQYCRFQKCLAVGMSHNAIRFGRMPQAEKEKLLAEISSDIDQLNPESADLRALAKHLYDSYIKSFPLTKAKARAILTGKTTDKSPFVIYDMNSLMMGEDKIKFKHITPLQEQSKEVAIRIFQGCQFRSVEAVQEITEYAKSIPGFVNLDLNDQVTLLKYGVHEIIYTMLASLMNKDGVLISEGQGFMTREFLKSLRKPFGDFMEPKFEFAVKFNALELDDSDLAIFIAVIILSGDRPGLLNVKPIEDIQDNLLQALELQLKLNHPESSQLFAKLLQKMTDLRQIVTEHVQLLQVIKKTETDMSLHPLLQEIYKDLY
Chain of Peroxisome proliferator-activated receptor gamma/Nuclear receptor coactivator 3 (Q9Y6Q9 whole entry, further chain): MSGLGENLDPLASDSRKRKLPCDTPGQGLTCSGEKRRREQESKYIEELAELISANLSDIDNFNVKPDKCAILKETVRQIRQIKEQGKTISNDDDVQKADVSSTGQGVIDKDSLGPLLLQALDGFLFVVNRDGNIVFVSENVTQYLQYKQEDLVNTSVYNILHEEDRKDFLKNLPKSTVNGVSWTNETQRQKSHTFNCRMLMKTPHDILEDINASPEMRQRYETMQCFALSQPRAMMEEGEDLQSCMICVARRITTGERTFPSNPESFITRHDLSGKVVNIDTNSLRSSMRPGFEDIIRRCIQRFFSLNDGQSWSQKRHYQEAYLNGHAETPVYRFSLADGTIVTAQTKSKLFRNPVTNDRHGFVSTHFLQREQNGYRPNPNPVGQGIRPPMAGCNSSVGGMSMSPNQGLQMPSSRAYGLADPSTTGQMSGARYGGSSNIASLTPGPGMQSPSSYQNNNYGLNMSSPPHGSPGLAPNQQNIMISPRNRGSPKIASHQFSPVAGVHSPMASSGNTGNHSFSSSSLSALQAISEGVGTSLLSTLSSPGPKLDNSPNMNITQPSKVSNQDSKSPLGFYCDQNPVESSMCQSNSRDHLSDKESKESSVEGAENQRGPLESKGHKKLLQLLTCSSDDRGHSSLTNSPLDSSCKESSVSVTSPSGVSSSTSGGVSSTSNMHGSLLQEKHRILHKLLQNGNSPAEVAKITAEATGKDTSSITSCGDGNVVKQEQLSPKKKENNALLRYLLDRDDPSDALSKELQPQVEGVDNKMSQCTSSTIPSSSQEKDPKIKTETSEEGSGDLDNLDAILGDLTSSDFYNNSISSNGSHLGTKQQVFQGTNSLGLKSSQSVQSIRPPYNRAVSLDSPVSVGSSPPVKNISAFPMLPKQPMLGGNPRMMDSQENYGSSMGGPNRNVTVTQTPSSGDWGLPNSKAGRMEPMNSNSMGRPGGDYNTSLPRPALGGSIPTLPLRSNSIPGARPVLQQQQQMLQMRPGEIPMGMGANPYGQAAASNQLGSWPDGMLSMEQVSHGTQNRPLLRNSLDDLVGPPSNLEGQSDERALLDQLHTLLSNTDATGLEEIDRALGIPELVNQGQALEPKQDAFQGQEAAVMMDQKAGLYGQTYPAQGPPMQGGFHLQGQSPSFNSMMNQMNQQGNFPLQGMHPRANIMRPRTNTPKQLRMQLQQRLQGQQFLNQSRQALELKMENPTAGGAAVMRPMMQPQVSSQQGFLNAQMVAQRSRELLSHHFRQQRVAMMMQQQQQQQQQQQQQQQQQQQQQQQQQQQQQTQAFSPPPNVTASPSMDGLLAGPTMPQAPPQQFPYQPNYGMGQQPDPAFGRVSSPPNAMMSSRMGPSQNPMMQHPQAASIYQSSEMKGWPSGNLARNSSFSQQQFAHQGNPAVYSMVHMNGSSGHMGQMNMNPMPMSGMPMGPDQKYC
Chain of Peroxisome proliferator-activated receptor gamma/Nuclear receptor coactivator 1 (P37231 whole entry): as the sequence (P37231 whole entry) above
Chain of Peroxisome proliferator-activated receptor gamma/Nuclear receptor coactivator 1 (Q15788 whole entry, further chain): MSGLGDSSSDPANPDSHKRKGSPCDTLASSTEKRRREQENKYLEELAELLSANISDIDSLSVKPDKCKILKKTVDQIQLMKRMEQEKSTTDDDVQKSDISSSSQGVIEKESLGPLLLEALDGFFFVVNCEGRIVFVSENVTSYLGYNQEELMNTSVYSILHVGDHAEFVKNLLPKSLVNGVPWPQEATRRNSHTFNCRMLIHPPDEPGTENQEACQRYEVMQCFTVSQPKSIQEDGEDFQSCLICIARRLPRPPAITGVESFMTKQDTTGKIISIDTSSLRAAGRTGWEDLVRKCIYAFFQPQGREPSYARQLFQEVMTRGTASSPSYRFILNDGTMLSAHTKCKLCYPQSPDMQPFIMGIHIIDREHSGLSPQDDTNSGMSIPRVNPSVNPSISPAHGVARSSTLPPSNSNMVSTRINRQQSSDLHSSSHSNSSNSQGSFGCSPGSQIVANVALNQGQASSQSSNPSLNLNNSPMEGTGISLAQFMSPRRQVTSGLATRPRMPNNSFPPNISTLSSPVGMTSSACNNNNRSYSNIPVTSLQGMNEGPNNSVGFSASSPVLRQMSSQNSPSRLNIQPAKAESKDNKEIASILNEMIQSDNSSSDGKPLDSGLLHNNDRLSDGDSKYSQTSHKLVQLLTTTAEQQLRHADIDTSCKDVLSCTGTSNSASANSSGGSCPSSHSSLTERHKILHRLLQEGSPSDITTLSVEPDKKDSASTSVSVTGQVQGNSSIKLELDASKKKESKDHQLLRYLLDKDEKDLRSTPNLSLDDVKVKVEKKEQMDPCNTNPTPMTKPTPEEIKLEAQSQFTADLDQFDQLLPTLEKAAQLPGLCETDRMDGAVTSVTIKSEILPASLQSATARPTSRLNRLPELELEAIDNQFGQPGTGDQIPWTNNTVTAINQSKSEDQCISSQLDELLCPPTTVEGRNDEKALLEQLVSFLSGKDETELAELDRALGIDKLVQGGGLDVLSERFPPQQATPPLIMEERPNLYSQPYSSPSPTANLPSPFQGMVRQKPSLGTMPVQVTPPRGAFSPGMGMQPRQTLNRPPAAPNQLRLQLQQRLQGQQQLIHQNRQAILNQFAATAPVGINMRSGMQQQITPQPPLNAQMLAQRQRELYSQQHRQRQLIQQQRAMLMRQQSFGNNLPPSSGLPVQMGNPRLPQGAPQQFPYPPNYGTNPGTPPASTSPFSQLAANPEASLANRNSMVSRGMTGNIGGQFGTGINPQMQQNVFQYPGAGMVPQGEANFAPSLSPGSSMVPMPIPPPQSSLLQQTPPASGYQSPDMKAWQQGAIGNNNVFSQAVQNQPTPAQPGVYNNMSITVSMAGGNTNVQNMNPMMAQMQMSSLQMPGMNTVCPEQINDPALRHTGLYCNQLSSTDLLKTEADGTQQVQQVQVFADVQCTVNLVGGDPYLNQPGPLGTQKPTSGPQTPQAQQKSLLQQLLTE

Broadly, the IC50 is the concentration at which inhibition is half-maximal. As for `COc1ccccc1NC(=O)CSc1nc(O)cc(=O)[nH]1`, in experiment [1], the IC50 was 74700 nM (active).
On the same count and under the same terms, the result for `Cc1cccc(NC(=O)CSc2nc3n[nH]cc3c(=O)[nH]2)c1` reads 3880 nM (active).
In general, EC50 refers to the midpoint of the concentration-response curve. `O=C1C2C3CCC(C3)C2C(=O)N1c1ccc(OS(=O)(=O)c2ccccc2)cc1` (configuration not stated): the EC50 in [2] was 408 nM (active); in [3] it was < 100 nM (inconclusive); in experiment [4], 360 nM (active); in experiment [5], 366 nM (active).
As for `Cn1nnc2cc(NC(=O)Nc3cccc(Cl)c3)ccc21`, the EC50 in experiment [2] is 832 nM (active); in experiment [3] it was 176 nM (active); in experiment [6], 109 nM (active); in experiment [4] it was 553 nM (active); in experiment [5] it was 413 nM (active).
For the molecule `COCCn1c(C)cc(C(=O)CSc2nc(O)c3ccccc3n2)c1C`, the EC50 in experiment [2] was 269 nM (active); in experiment [3], < 100 nM (active); in experiment [4], 326 nM (active); in [5], 371 nM (active).
As to `Cc1cc(OCC(=O)Nc2ccc3oc(-c4ccncc4)nc3c2)ccc1Cl`, the EC50 is 25300 nM (not active) in experiment [7], 24800 nM (not active) in [8] and 50600 nM (not active) in experiment [9].
What is called AC50 is the concentration giving half of the maximal activity seen. In the case of `CC(C)CC1C(C#N)=C(N)Oc2[nH]nc(-c3ccccc3)c21` (configuration not stated), the IC50 in experiment [1] was 33700 nM (active). Besides, the AC50 in experiment [10] is 5910 nM (active). Moreover, in experiment [11], the EC50 was 2130 nM (active).
With `Cc1ccc(NC(S)=NNc2ccc([N+](=O)[O-])cc2S(=O)(=O)Nc2ccccc2C(=O)O)cc1C`, the IC50 in [1] is 5160 nM (active); in experiment [12], 29500 nM (active); in [13], 2990 nM (active); in experiment [14] it was 12300 nM (active); in experiment [15] it was > 100000 nM (active).
For the molecule `c1ccc2nc3c(nc2c1)OCC1CCCCN31` (configuration not stated), the EC50 in [2] was 1450 nM (active); in [16], 475 nM (active); in experiment [3], 193 nM (active); in experiment [6], 161 nM (active); in experiment [4], 490 nM (active); in experiment [5], > 12000 nM (not active).
